A short description of this data set: in vitro. The note with it: human, hela cells, % viability.

Consider 51 molecules from article PMC12040169 (PLOS Biology, 2025).

What is called viability is a read-out of living cells in per cent, often relative to untreated cells.

As for `COc1ccc(C2(C(=O)NCc3ccc(-c4ccc(C(N)=O)c(C)n4)cc3)CCCC2)cc1` [CBK285647], the viability at 28.5 h, 10 µM stood at 96%. As for `O=C(Nc1cccc(CCc2nc3ccccc3[nH]2)c1)c1ccc(Cn2cncn2)cc1` [CBK285648], the figure is 89.1%; as for `COc1ccc(-c2ccc(OC)cc2C(=O)Nc2ccc3c(c2)N(C)C(=O)CO3)cc1` [CBK285650], 92%; as for `COc1ccccc1-c1ccc(NC(=O)c2ccc3c(c2)ncn3C)cc1` [CBK285652], 103%. To `Cc1ccc(C2CCCN2C(=O)c2ccc(=O)n(CC(=O)N(C)c3ccccc3)c2)cc1C` (stereo not drawn) [CBK285653] belongs 107%; to `O=C(c1ccccc1F)N1C[C@H](c2ccsc2)[C@H]2CN(Cc3ccccc3)CC[C@H]21` [CBK285655], 96.5%.

Regarding `O=C(c1ccccc1F)N1C[C@H](c2ccsc2)[C@H]2CN(Cc3ccccc3F)CC[C@H]21` [CBK285656], the viability at 28.5 h, 10 µM came out at 97.4%. As for `O=C(c1ccccc1F)N1C[C@H](c2ccsc2)[C@H]2CN(Cc3cccs3)CC[C@H]21` [CBK285657], the figure is 94.8%. Take `Cc1ccc(CN2CC[C@@H]3[C@H](C2)[C@@H](c2ccsc2)CN3C(=O)c2ccccc2F)cc1` [CBK285658]: the viability at 28.5 h, 10 µM was 96.5%.

For the molecule `Cc1cccc(CN2CC[C@@H]3[C@H](C2)[C@@H](c2ccsc2)CN3C(=O)c2ccccc2F)c1` [CBK285659], the viability at 28.5 h, 10 µM is 109%. As for `Cc1cccn2cc(C(=O)N3CC(C(=O)N4CCN(c5ccccc5)CC4)C3)nc12` [CBK285663], the figure is 101%; as for `Cn1cnc2cc(C(=O)N3CC(C(=O)N4CCN(c5ccccc5)CC4)C3)ccc21` [CBK285664], 82.5%. To `Cc1cc(NC(=O)CN2CC(C(=O)N3CCN(c4ccccc4)CC3)C2)no1` [CBK285665] belongs 112%; to `Cc1nc(C)c(C(=O)N2CC(C(=O)N3CCN(c4ccccc4)CC3)C2)s1` [CBK285666], 93.4%. To `CCc1noc(C)c1C(=O)N1CC(C(=O)N2CCN(c3ccccc3)CC2)C1` [CBK285667] belongs 107%. Consider `Cc1nc(C2CCN(Cc3cccc(F)c3)CC2)ncc1C(=O)Nc1ccc(F)cc1` [CBK285668], for which the viability at 28.5 h, 10 µM amounted to 107%. `CCn1cc(CN2CCC(c3cc(Cc4cccc(OC)c4)cc(C)n3)CC2)c(C)n1` [CBK285671]: the viability at 28.5 h, 10 µM amounted to 89.2%. As for `Cn1cc(-c2ccc(C3CCCCN3Cc3ccnc4ccccc34)cn2)cn1` (stereo not drawn) [CBK285672], the figure is 93.3%; as for `CC(NC(=O)Cc1c[nH]c(=O)[nH]c1=O)c1cc2cc(Cl)ccc2o1` (stereo not drawn) [CBK285673], 100%. On to `O=C(Cc1c[nH]c(=O)[nH]c1=O)Nc1ncc(Cc2ccc(F)cc2)s1` [CBK285674], for which the viability at 28.5 h, 10 µM was determined as 103%.

Take `CN(C)C(=O)C1(Cc2ccccc2-c2ccccc2)CCN(C(=O)c2cccc(F)c2)CC1` [CBK285675]: the viability at 28.5 h, 10 µM was 111%. Take `Cc1cc(C(=O)N2CCC(Cc3ccccc3-c3ccccc3)(C(=O)N(C)C)CC2)cs1` [CBK285676]: the viability at 28.5 h, 10 µM turned out to be 116%.

For `Cc1ccc(C(=O)N2CCC(Cc3ccccc3-c3ccccc3)(C(=O)N(C)C)CC2)s1` [CBK285677], the viability at 28.5 h, 10 µM came out at 107%.

For `CCCN1CCN(C(=O)c2cnc(C)cn2)C(Cc2cccc(-c3cccs3)c2)C1=O` (stereo not drawn) [CBK285678], the viability at 28.5 h, 10 µM stood at 87.2%.

Regarding `O=C(Cc1ccc2c(c1)CCCO2)Nc1c(OCCn2cccn2)ccc2ccccc12` [CBK285679], the viability at 28.5 h, 10 µM was found to be 96.9%. To `COCCNC(=O)c1sc2ccccc2c1C1CCN(Cc2ccc3ncccc3c2)C1` (stereo not drawn) [CBK285680] belongs 85.2%; to `COc1cc(CCc2cc(O)n3nc(C)c(-c4ccc(Cl)cc4)c3n2)on1` [CBK285681], 91.3%. To `CN(C)C(=O)C1(Cc2ccccc2-c2cccs2)CCN(C(=O)Cc2ccccc2)CC1` [CBK285687] belongs 92.6%; to `O=C(NCCc1ccc(F)cc1)C1CN(C(=O)c2ccc3nsnc3c2)C1` [CBK285690], 95.8%; to `COc1cc(CCc2cc(O)n3nc(-c4cccc(C)c4)c(C)c3n2)on1` [CBK285691], 99.8%. Consider `CNC(=O)C1(Cc2ccccc2-c2cccc(F)c2)CCN(C(=O)Cc2ccccc2)CC1` [CBK285692], for which the viability at 28.5 h, 10 µM was 115%. As for `CCCn1cnc2cc(NC(=O)C3CCN(S(=O)(=O)c4ccc(F)cc4)C3)ccc21` (stereo not drawn) [CBK285704], the figure is 85.8%. To `Cc1nnnn1-c1ccc(CC(=O)N2CCc3sccc3C2c2ccco2)cc1` (stereo not drawn) [CBK285705] belongs 88.2%; to `O=C(c1ccc(N2CCCC2)cc1)N1CCc2sccc2C1c1ccco1` (stereo not drawn) [CBK285707], 102%; to `Cc1ccccc1-c1ccccc1CC1(C(=O)N(C)C)CCN(C(=O)CC(C)C)CC1` [CBK285714], 93.6%.

`Cc1ccccc1-c1ccccc1CC1(C(=O)N(C)C)CCN(C(=O)C2CCCCC2)CC1` [CBK285718]: the viability at 28.5 h, 10 µM came to 98.2%. As to `COc1ccccc1CN1CCC(Cc2ccccc2-c2ccccc2)(C(N)=O)CC1` [CBK285719], the viability at 28.5 h, 10 µM was 101%. Take `Cc1ccccc1-c1ccccc1CC1(C(N)=O)CCN(C(=O)CC2CCCCC2)CC1` [CBK285723]: the viability at 28.5 h, 10 µM amounted to 103%. As for `Cc1ccccc1-c1ccccc1CC1(C(N)=O)CCN(C(=O)c2cccc(F)c2)CC1` [CBK285726], the figure is 94.2%; as for `Cc1ccc(CC(=O)N2CCC(Cc3ccccc3-c3ccccc3C)(C(N)=O)CC2)cc1` [CBK285727], 98.2%; as for `Cc1cccc(CC(=O)N2CCC(Cc3ccccc3-c3ccccc3C)(C(N)=O)CC2)c1` [CBK285728], 93.4%.

For the molecule `COc1cccc(CC(=O)N2CCC(Cc3ccccc3-c3ccccc3)(C(N)=O)CC2)c1` [CBK285730], the viability at 28.5 h, 10 µM amounted to 96.7%. As for `Cc1ccccc1-c1ccccc1CC1(C(=O)N(C)C)CCN(C(=O)C2CC=CCC2)CC1` (stereo not drawn) [CBK285733], the figure is 97.2%. To `CC1CC(=O)N(c2cccc(C(=O)Nc3cccc(-c4cccc(F)c4)c3)c2)C1=O` (stereo not drawn) [CBK285734] belongs 103%; to `COc1ccccc1C(=O)N1CCC(Cc2ccccc2-c2ccccc2)(C(N)=O)CC1` [CBK285739], 96.4%; to `Cc1ccc(CC(=O)N2CCC(Cc3ccccc3-c3ccccc3)(C(N)=O)CC2)cc1` [CBK285740], 110%. As for `COc1ccccc1C(=O)N1CCC(Cc2cccc(-c3cccs3)c2)(C(N)=O)CC1` [CBK285742], the figure is 99.8%; as for `COc1ccccc1CC(=O)N1CCC(Cc2cccc(-c3cccs3)c2)(C(N)=O)CC1` [CBK285743], 93.3%. `COc1ccc(CC(=O)N2CCC(Cc3cccc(-c4cccs4)c3)(C(N)=O)CC2)cc1` [CBK285744]: the viability at 28.5 h, 10 µM worked out at 93.2%. `COc1ccc(C(NC(=O)c2ccc(Cn3cncn3)cc2)c2ccccc2)cc1` (stereo not drawn) [CBK285749]: the viability at 28.5 h, 10 µM is 106%. As to `CC(C)NC(=O)C1(Cc2ccc(-c3ccccc3F)cc2)CCN(C(=O)C(C)C)CC1` [CBK285754], the viability at 28.5 h, 10 µM was 102%.
